According to patent US6407103B2, “Indeno [1,2-c] pyrazol-4-ones and their uses” (Bristol-Myers Squibb Pharma Company, priority 1998, dated 2002):
Counter-ions that a name gives are not always drawn.

For `CC(=N)N1CCN(c2ccc(-c3[nH]nc4c3C(=O)c3c(NC(=O)NN5CCOCC5)cccc3-4)cc2)CC1` (as salt: TFA) [Example CCLIII, 3-(4-(4-(1-iminoethyl)piperazino)phenyl)-5-(morpholinocarbamoylamino)indeno[1,2-c]pyrazol-4-one], the melting point was 240 °C.
Compound `CCc1[nH]nc2c1C(=O)c1c(NC(=O)NN3CCOCC3)cccc1-2` (as salt: TFA) [Example CCLIX, 3-ethyl-5-(morpholinocarbamoylamino)indeno[1,2-c]pyrazol-4-one] has a melting point of 253 °C.
In the case of `CCc1[nH]nc2c1C(=O)c1c(NC(=O)NN3CCN(C)CC3)cccc1-2` (as salt: TFA) [Example CCLVI, 3-ethyl-5-(4-methylpiperazinocarbamoylamino)indeno[1,2-c]pyrazol-4-one], the melting point is reported as 244 °C.
With `CCOC(=O)N1CCC(c2[nH]nc3c2C(=O)c2c(NC(=O)NN4CCOCC4)cccc2-3)CC1` (as salt: TFA) [Example CCLXII, 3-(1-ethoxycarbonylpiperidin-4-yl)-5-(morpholinocarbamoylamino)indeno[1,2-c]pyrazol-4-one] the melting point was 206 °C.
Compound `O=C(Nc1cccc2c1C(=O)c1c-2n[nH]c1C1CCN(C(=O)n2ccnc2)CC1)NN1CCOCC1` (as salt: TFA) [Example CCLXIV, 3-(1-(imidazol-1-ylcarbonyl)piperidin-4-yl)-5-(morpholinocarbamoylamino)indeno[1,2-c]pyrazol-4-one] has a melting point of 202 °C.
`CN(C)C1CCN(C(=O)N2CCC(c3[nH]nc4c3C(=O)c3c(NC(=O)NN5CCOCC5)cccc3-4)CC2)CC1` (as salt: TFA) [Example CCLXIX, 3-(1-(4-(dimethylamino)piperidinocarbonyl)piperidin-4-yl)-5-(morpholinocarbamoylamino)indeno[1,2-c]pyrazol-4-one] showed a melting point of 172 °C.
Work on `O=C(Nc1cccc2c1C(=O)c1c-2n[nH]c1C1CCN(C(=O)c2cccs2)CC1)NN1CCOCC1` (as salt: TFA) [Example CCLXV, 3-(1-(2-thienylcarbonyl)piperidin-4-yl)-5-(morpholinocarbamoylamino)indeno[1,2-c]pyrazol-4-one] yielded a melting point of 218 °C.
For `NC(=O)N1CCC(c2[nH]nc3c2C(=O)c2c(NC(=O)NN4CCOCC4)cccc2-3)CC1` (as salt: TFA) [Example CCLXVI, 3-(1-carbamoylpiperidin-4-yl)-5-(morpholinocarbamoylamino)indeno[1,2-c]pyrazol-4-one], the melting point was 258 °C.
Compound `O=C(Nc1cccc2c1C(=O)c1c-2n[nH]c1C1CCN(C(=O)N2CCNCC2)CC1)NN1CCOCC1` (as salt: TFA) [Example CCLXX, 3-(1-(piperazinocarbonyl)piperidin-4-yl)-5-(morpholinocarbamoylamino)indeno[1,2-c]pyrazol-4-one] has a melting point of 195 °C.
`CC(C)(C)OC(=O)N1CCN(C(=O)N2CCC(c3[nH]nc4c3C(=O)c3c(NC(=O)NN5CCOCC5)cccc3-4)CC2)CC1` (as salt: TFA) [Example CCLXXI, 3-(1-(4-(t-butoxycarbonyl)piperazinocarbonyl)piperidin-4-yl)-5-(morpholinocarbamoylamino)indeno[1,2-c]pyrazol-4-one] showed a melting point of 231 °C.
In the case of `O=C(Nc1cccc2c1C(=O)c1c-2n[nH]c1C1CCN(C(=O)N2C[C@@H]3C[C@H]2CN3)CC1)NN1CCOCC1` (as salt: TFA) [Example CCLXXII, 3-(1-(((1S,4S)-(+)-2,5-diazabicyclo[2.2.1]hept-2-yl)carbonyl)piperidin-4-yl)-5-(morpholinocarbamoylamino)indeno[1,2-c]pyrazol-4-one], the melting point is reported as 196 °C.
Work on `CN1C[C@@H]2C[C@H]1CN2C(=O)N1CCC(c2[nH]nc3c2C(=O)c2c(NC(=O)NN4CCOCC4)cccc2-3)CC1` (as salt: TFA) [Example CCLXXIII, 3-(1-(((1S,4S)-(+)-5-methyl-2,5-diazabicyclo[2.2.1]hept-2-yl)carbonyl)piperidin-4-yl)-5-(morpholinocarbamoylamino)indeno[1,2-c]pyrazol-4-one] yielded a melting point of 225 °C.
In the case of `CC(C)(C)OC(=O)NCCCCC(=O)N1CCC(c2[nH]nc3c2C(=O)c2c(NC(=O)NN4CCOCC4)cccc2-3)CC1` (as salt: TFA) [Example CCLXXIX, 3-(1-(4-(t-butoxycarbonylamino)butylcarbonyl)piperidin-4-yl)-5-(morpholinocarbamoylamino)indeno[1,2-c]pyrazol-4-one], the melting point is reported as 98 °C.
`NCCCCC(=O)N1CCC(c2[nH]nc3c2C(=O)c2c(NC(=O)NN4CCOCC4)cccc2-3)CC1` (as salt: TFA) [Example CCLXXVII, 3-(1-(4-aminobutylcarbonyl)piperidin-4-yl)-5-(morpholinocarbamoylamino)indeno[1,2-c]pyrazol-4-one] showed a melting point of 103 °C.
For `CN(C)CCCCC(=O)N1CCC(c2[nH]nc3c2C(=O)c2c(NC(=O)NN4CCOCC4)cccc2-3)CC1` (as salt: TFA) [Example CCLXXVIII, 3-(1-(4-(dimethylamino)butylcarbonyl)piperidin-4-yl)-5-(morpholinocarbamoylamino)indeno[1,2-c]pyrazol-4-one], the melting point was 68 °C.
Work on `CN1CCC(C(=O)N2CCC(c3[nH]nc4c3C(=O)c3c(NC(=O)NN5CCOCC5)cccc3-4)CC2)CC1` (as salt: TFA) [Example CCLXXX, 3-(1-((1-methylpiperidin-4-yl)carbonyl)piperidin-4-yl)-5-(morpholinocarbamoylamino)indeno[1,2-c]pyrazol-4-one] yielded a melting point of 148 °C.
`N[C@H]1CC[C@@H](C(=O)N2CCC(c3[nH]nc4c3C(=O)c3c(NC(=O)NN5CCOCC5)cccc3-4)CC2)CC1` (as salt: TFA) [Example CCLXXXII, 3-(1-(cis-4-aminocyclohexylcarbonyl)piperidin-4-yl)-5-(morpholinocarbamoylamino)indeno[1,2-c]pyrazol-4-one] gave a melting point of 212 °C.
`NC1CCC(C(=O)N2CCC(c3[nH]nc4c3C(=O)c3c(NC(=O)NN5CCOCC5)cccc3-4)CC2)CC1` (stereo not drawn) (as salt: TFA) [Example CCLXXXIII, 3-(1-(4-aminocyclohexylcarbonyl)piperidin-4-yl)-5-(morpholinocarbamoylamino)indeno[1,2-c]pyrazol-4-one] showed a melting point of 202 °C.
Compound `CC(C)(C)OC(=O)NC1CCC(C(=O)N2CCC(c3[nH]nc4c3C(=O)c3c(NC(=O)NN5CCOCC5)cccc3-4)CC2)CC1` (stereo not drawn) (as salt: TFA) [Example CCLXXXV, 3-(1-(4-(t-butoxycarbonylamino)cyclohexylcarbonyl)piperidin-4-yl)-5-(morpholinocarbamoylamino)indeno[1,2-c]pyrazol-4-one] has a melting point of 210 °C.
`O=C(Nc1cccc2c1C(=O)c1c-2n[nH]c1C1CCN(C(=O)C2CCCNC2)CC1)NN1CCOCC1` (stereo not drawn) (as salt: TFA) [Example CCLXXXVII, 3-(1-(piperidin-3-ylcarbonyl)piperidin-4-yl)-5-(morpholinocarbamoylamino)indeno[1,2-c]pyrazol-4-one] gave a melting point of 169 °C.
Work on `CN1CCCC(C(=O)N2CCC(c3[nH]nc4c3C(=O)c3c(NC(=O)NN5CCOCC5)cccc3-4)CC2)C1` (stereo not drawn) (as salt: TFA) [Example CCLXXXVIII, 3-(1-(1-methylpiperidin-3-ylcarbonyl)piperidin-4-yl)-5-(morpholinocarbamoylamino)indeno[1,2-c]pyrazol-4-one] yielded a melting point of 158 °C.
